According to US20060084697A1, “Pi3k antagonists as radiosensitizers” (priority 2002, published 2006):

Tested on: Akt
Test: Western blot of radiation-induced Akt phosphorylation in HUVEC
Format: cell-based, human
Details: HUVEC
Description: HUVEC cells were obtained from Clonetics and were maintained in EBM-2 medium supplemented with EGM™-2MV SINGLEQUOTS® (Bio-Whittaker, Inc., Walkersville, Md., United States of America). An Eldorado-8 Cobalt-60 teletherapy unit (Atomic Energy of Canada Limited, Mississauga, Ontario, Canada) was used to irradiate endothelial cell cultures at a dose rate of 0.84 Gy per minute. Delivered doses ranging from 0 to 12 Gy were verified by use of thermoluminescence detectors.
In order to determine if Akt is phosphorylated in response to irradiation, cultured HUVEC cells were serum starved for 4 hours, exposed to irradiation, and the phosphorylation of Akt was examined in cell extracts by Western blotting. Total cellular protein was extracted after radiation treatment as follows. Cells were counted and then washed with iced-cold PBS twice before the addition of lysis buffer (M-PER™ mammalian protein extraction reagent; Pierce Chemical Company, Rockford, Ill., United States of America; or 20 mM Tris, 150 mM NaCl, 1 mM EDTA, 1% Triton X-100, 2.5 mM sodium pyrophosphate, 1 mM phenylmethylsulphonyl fluoride (PMSF), and […] Leupeptin (Roche Molecular Biochemicals, Indianapolis, Ind., United States of America)). Protein concentrations were quantified using the Biorad method (Bradford, 1976). 50 μg protein was loaded into each well of an 8% sodium dodecyl […]-polyacrylamide gel electrophoresis (SDS-PAGE) gel and separated by electrophoresis. The proteins were subsequently transferred onto 0.45 μm nitrocellulose membranes. Membranes were blocked by incubation for 2 hours at room temperature in phosphate buffered saline-Triton (PBST: 0.9% NaCl, 0.3% Triton X-100, pH 7.4) containing 10% nonfat dry milk.
The presence of Akt protein on the membrane was determined as follows. The membranes were incubated with a 1:1000 dilution of rabbit antibody directed against either phosphorylated (Ser473) or non-phosphorylated human Akt overnight at 4° C. Rabbit antibodies were obtained from Cell Signaling Technology, Beverly, Mass., United States of America. The blots were then washed with PBST to remove unbound rabbit antibodies. The washed blots were then incubated for 1 hour at room temperature with a donkey anti-rabbit IgG secondary antibody (Amersham Biosciences, Piscataway, N.J., United States of America) diluted 1:1000 in PBST. The blots were again washed with PBST to remove unbound donkey antibodies. The presences of both phosphorylated and non-phosphorylated human Akt were determined by chemiluminescent detection of donkey anti-rabbit/rabbit anti-human Akt complexes using the ECL™ detection system (Amersham Biosciences) according to the manufacturer's protocol, followed by autoradiography. […]

O=c1cc(N2CCOCC2)oc2c(-c3ccccc3)cccc12 [LY294002, 2-(4-Morpholinyl)-8-phenyl-4H-1-benzopyran-4-one]
total Akt levels (wortmannin 4 nM or LY294002 2 μM): no effect
Akt phosphorylation following irradiation (wortmannin 4 nM or LY294002 2 μM added 30 minutes prior to irradiation, 3 Gy): strong inhibition
